# Experimental data published in patent publication US10709743B2, “Pharmaceutical wound healing composition” (Council of Scientific and Industrial Research, priority 2015, dated 2020).
# “And” between values parts separate entries of the source, which are not always exact repeats. Equal values may be shown once.
# How the values were obtained:
# [1] = cited from earlier work
# [2] = test system: Wister rats (Male); assay: Incision wound model, wound size measurement; format: in vivo; parameters: unit not given here; conditions: individual animals SR NO 1-6, applied once a day
# [3] = test system: Wister rats (Male); assay: Incision wound model, wound size measurement; format: in vivo; parameters: unit not given here; conditions: average of six animals
# Method: The animals were housed in a standard individual metal cages and room was maintained at 22±1° C. with an alternating 12 h light-dark cycle. Food and water were provided ad libitum. All the experiments on animals were conducted after obtaining permission from Institutional Animal Ethical Committee of the Institute.
# Animals were divided into two groups (six animals each).
# All animals of two groups were anesthetized with an aesthetic ether, and a paravertebral long incision of 4.4 cm length were made through the skin and cutaneous muscle at a distance about 1.5 cm from the middle on right side of the depilated back.
# All groups (A and B) of animals received sufficient amount of formulation applied externally (as depicted in table No. 2). All the test formulations were applied once a day for 10 days starting from the day of incision. Wound-healing property was evaluated by wound length and wound closure time.
# Every alternative days wound size contraction was measured. By placing transparent blotting paper carefully on the wounded part of rats marking were done by permanent marker and size of reduction in wound noted.
Substance,"scavenging of hydroxyl, superoxide and DPPH radicals ([1]; ESR and ultraviolet spectrophotometry)",antioxidative activity on the peroxidation of linoleic acid ([1]; linoleic acid system),wound size ([2]; DAY 2),wound size ([2]; DAY 10),wound size ([2]; DAY-4),wound size ([2]; DAY-6),wound size ([2]; DAY-8),wound size AVG ([3]; DAY 2),wound size AVG ([3]; DAY 10),wound size AVG ([3]; DAY-4),wound size AVG ([3]; DAY-6),wound size AVG ([3]; DAY-8)
silk sericin,strong scavenging capacity,potent antioxidative activity,,,,,,,,,,
Sericin [Group C],,,26 (2×) and 24 and 25 and 30 (2×),9 and 6 (3×) and 7 and 5,21 and 23 (2×) and 27 and 28 and 24,20 and 22 (2×) and 25 and 27 and 24,18 and 16 (3×) and 17 and 15,26.83,6.5,24.33,23.33,16.33
